From patent US11077090B2, “Compounds and compositions and uses thereof” (Sunovion Pharmaceuticals Inc., priority 2016, dated 2021)

What was measured:
Assay type in all cases: in vivo
Male C57Bl/6J mice [1] = assay: Amphetamine induced hyperlocomotion assay; parameters: key: #: Significant increase in total distance traveled (P < 0.05 vs vehicle + AMPH group); −: No change in total distance traveled; Significant decrease in total distance traveled (P < 0.05 vs vehicle + AMPH group); details: 3 mg/kg PO Compound + AMPH
Description: Psychostimulants such as amphetamine (AMPH) are frequently used to induce or mimic a manic-like or psychotic-like state. AMPH administration to rodents increases horizontal locomotion, vertical rearing and repetitive stereotyped behaviors, and typical antipsychotic drugs, such as haloperidol, can reduce these behaviors. The antimanic/antipsychotic-like effects of test compounds were evaluated in male C57Bl/6J mice from Jackson Laboratories Mice were acclimatized to the experimental room for at least 1 hour prior to testing. The mice (n=10 per group) were administered vehicle or test compound orally by gavage (10 mL/kg injection volume) and placed individually in the novel open field (OF) chambers (Med Associates) for 30 minutes of baseline activity measurement. Mice were then injected with either water or AMPH (4 mg/kg, i.p., 10 mL/kg) and placed back in the same individual OF chambers for a 60-minute testing session during which the effects of test compounds on stimulant-induced behaviors (total distance traveled, rearing and stereotypy) were measured. A reduction in total distance traveled relative to the vehicle+AMPH condition indicates an antimanic/antipsychotic drug-like response.

Male C57Bl/6J mice [2] = assay: Marble burying test; parameters: key: −: No reduction in number of marbles buried; +: Significant reduction in number of marbles buried (P < 0.05 vs vehicle)
Description: The marble burying assay is used to evaluate the anxiolytic activity of a test compound. After placement in a novel cage containing glass marbles, mice will bury the marbles. Acute administration of anxiolytic agents, as well as antidepressants, decrease this activity at non-sedating doses. Male C57Bl/6J mice from Jackson Laboratories were used in this study and were acclimatized to the experimental room for at least 1 hour prior to testing. Mice (n=10 per group) were administered sterile water or test compound intraperitoneally (i.p.) or orally by gavage (p.o.), or the positive control chlordiazepoxide (15 mg/kg, i.p.), in 10 mL/kg injection volumes, and returned to their home cages for a 30-minute pretreatment period. The mice were then placed individually in clean cages, containing hard wood bedding and twenty black marbles placed in spaced rows of 4×5. After a 30-minute test session, the number of buried marbles was counted. A marble was considered buried if it was pushed at least two thirds into the bedding. Locomotor activity was monitored by measuring the distance traveled using an overhead camera and Video Tracker Software (ViewPoint Life Sciences Software, France). A reduction in the number of marbles buried relative to the vehicle condition indicates an anxiolytic drug-like effect.

Adult male AJ mice = assay: Tail suspension test (TST); parameters: key: −: No decrease in Mean Total Time Immobile; +: Significant decrease in Mean Total Time Immobile (P < 0.05 vs vehicle); details: 3 mg/kg PO
Description: The tail suspension test (TST) is a rodent screening test for potential (human) antidepressant drugs. It is based on the assumption that an animal will actively try to escape an aversive (stressful) stimulus. If escape is impossible, the animal will eventually stop trying (“give up”). In the TST, a mouse is suspended by the tail so that its body dangles in the air, head downward. Mice initially struggle to face upward and climb to a solid surface. When the animal stops struggling and hangs immobile it is considered to have “given up”. Shorter periods of immobility are characteristic of antidepressant-like activity. Accordingly, longer periods of immobility are considered indicative of a depressive-like state. It has been shown that treatment with an antidepressant drug will decrease the time the animal spends immobile. See generally L. Steru et al., Psychopharmacology (Berl). 1985; 85(3):367-70; B. Thierry et al., Psychopharmacology 1986; 90:284-85.
Adult male AJ mice from Jackson Laboratories received vehicle (sterile water) or test compound orally by gavage, or the positive control desipramine (20 mg/kg, i.p.), in 10 mL/kg injection volumes, 30 min before being subjected to the Tail Suspension Test. In this test, mice are placed in the Tail Suspension chambers (white polyvinylchloride cubicles measuring 33×33×31.75 cm Med Associates, Inc. St. Albans, Vt.) by a piece of transparent (Scotch®) tape attached to the tail, from about the mid-tail, with approximately 2 cm of tape past the end of the tail for 10 min during which the time spent immobile is measured. A reduction in total time immobile relative to the vehicle condition indicates an antidepressant drug-like response.

Male C57Bl/6J mice [3] = assay: Prepulse inhibition of startle (PPI); parameters: key: −: No change in PPI; +: Significant increase in PPI at one pre-pulse intensity (P < 0.05 vs vehicle); ++: Significant increase in PPI at two pre-pulse intensities (P < 0.05 vs vehicle); +++: Significant increase in PPI at three pre-pulse intensities (P < 0.05 vs vehicle); details: 3 mg/kg PO
Description: The acoustic startle is an unconditioned reflex response to an external auditory stimulus. Prepulse inhibition of startle (PPI) refers to the reduction in the startle response caused by the presentation of a low-intensity auditory stimulus prior to the startle stimulus. The PPI paradigm is used for the study of schizophrenia and antipsychotic action due to the similarities between the results from human and rodent studies. PPI has been used as a tool for the assessment of deficiencies in sensory-motor gating observed in schizophrenia and to screen for potential antipsychotic drugs. Various psychotomimetic drugs, such as phencyclidine (PCP), can disrupt PPI. In mice, antipsychotic drugs such as haloperidol can increase PPI and clozapine can reverse the disruption of PPI induced by PCP.
Male C57Bl/6J mice from Jackson Laboratories were placed in the PPI chambers (Med Associates) for a 5 min session of white noise (70 dB) habituation. After the habituation period, the test session was initiated. The session started with a habituation block of 6 presentations of the startle stimulus alone, followed by 10 PPI blocks, each of which consisted of 6 different types of trials. Trial types were: ‘null’ (no stimuli), ‘startle’ (120 dB), ‘startle plus prepulse’ (4, 8, and 12 dB over background noise, i.e., 74, 78, or 82 dB) and ‘prepulse’ (82 dB). Trial types were presented in a random order within each block. Each trial started with a 50 ms stimulus-free period during which baseline movements were recorded. This was followed by a subsequent 20 ms period during which the prepulse stimulus was presented and responses to the prepulse measured. After a further 100 ms period, the startle stimulus was presented for 40 ms and responses recorded for 100 ms from startle onset. Responses were sampled every ms. The inter-trial interval was variable with an average of 15 s (range from 10 to 20 s). In ‘startle’ trials, the basic auditory startle response was measured. The basic startle response was calculated as the mean startle response of all ‘startle’ trials (i.e., excluding the first habituation block). In ‘startle plus prepulse’ trials, the degree of inhibition of the normal startle was calculated and expressed as a percentage of the basic startle response.
Mice were treated with vehicle or test compound orally by gavage, or haloperidol (1 mg/kg, i.p.), in 10 mL/kg injection volumes, 30 min prior to PPI test. The PPI enclosures were cleaned following each test. An increase in the percent PPI relative to the vehicle condition indicates an antipsychotic drug-like response.

male Sprague-Dawley rats = assay: Stress induced hyperthermia (SIH) assay; parameters: key: −: No change in Delta T ([…]T); +: Significant decrease in Delta T ([…]T) (P < 0.05 vs vehicle)
Description: Stress-induced hyperthermia (SIH), mediated by the autonomic nervous system, is well known to occur prior to and during exposure to stress and/or anxiety-inducing situations. In many human anxiety disorders, it occurs as an integral part of the pathology and is often considered a representative symptom of the disease, e.g. in generalized anxiety disorder as defined in DSM-IV. In rodents, acute administration of anxiolytic drugs, such as buspirone or chlordiazepoxide (CDP), are known to reduce the SIH response to stressors such as handling, noise, heat, novelty, or pain. The test involves two measures of rectal temperature repeated in the same animal with a 10-minute interval. On the day prior to testing, male Sprague-Dawley rats from Envigo (n=10 per group) were brought to the experimental room approximately one hour before scheduled lights out and singly housed overnight with food and water ad libitum. On the morning of the experiment, animals were first injected with either vehicle or test compound orally by gavage, or CDP (10 mg/kg, i.p.). One hour following injection, each animal was removed from the holding cage and held in a supine position while the rectal temperature was measured by slowly inserting a rectal probe into the animal's rectum at a length of approximately 0.5 cm. The rectal probe was attached to a PhysiTemp digital thermometer (Fisher Scientific) which provides temperature readings at 0.1° C. accuracy. The probe remained inside the animal for approximately 5 seconds or until body temperature reaches stability. This temperature was recorded as the baseline rectal temperature (T1). The animal was immediately placed back to the holding cage and after a 10-min interval the second rectal temperature (T2) was taken using the same procedure as in measuring T1. Before each insertion, the rectal probe was cleaned with an alcohol pad and lubricated with sterile K-Y jelly. All SIH studies were conducted between 8:00-11:00 a.m. The SIH response was calculated as the difference in temperature between the second and first temperature reading (Delta T, […]T). A reduction in […]T relative to the vehicle condition indicates an anxiolytic drug-like response.

compound-treated mice = assay: Neuropharmacological assay (SmartCube): behavioral activity signature and minimal effective dose; details: for AD: ADHD (probability of activity signature) / AG: analgesic (probability of activity signature) / AX: anxiolytic (probability of activity signature) / CE: cognitive enhancer (probability of activity signature) / DP: anti-depressant (probability of activity signature) / MS: mood stabilizer (probability of activity signature) / PS: anti-psychotic (probability of activity signature) / SD: sedative hypnotic (probability of activity signature) / UN: uncharacterized CNS activity (probability of activity signature): i.p. 15 min before test, most efficacious dose(s)
Procedure, shortened: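 Mice dosed i.p. 15 min before test, compound in N-methyl-2-pyrrolidone/PEG/propylene glycol, 3 doses; video-captured behavior matched to reference-drug signatures, giving per-class probabilities at most efficacious dose. MED from doses typically 0.3–30 mpk, defined as lowest dose with ≥50% total activity.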

[4] = MED = dose having 50% or more total activity

Compound | Total Distance Traveled (Male C57Bl/6J mice [1]) | Marbles Buried (Male C57Bl/6J mice [2]; 3 mg/kg (p.o.)) | Mean Total Time Immobile (Adult male AJ mice) | Effect on Pre-Pulse Inhibition (PPI) (Male C57Bl/6J mice [3]) | Delta T ([…]T) (male Sprague-Dawley rats; 10 mg/kg PO) | Delta T ([…]T) (male Sprague-Dawley rats; 30 mg/kg PO) | Marbles Buried (Male C57Bl/6J mice [2]; 3 mg/kg (i.p.)) | Marbles Buried (Male C57Bl/6J mice [2]; 10 mg/kg (i.p.)) | AD: ADHD (probability of activity signature) (compound-treated mice) | AG: analgesic (probability of activity signature) (compound-treated mice) | AX: anxiolytic (probability of activity signature) (compound-treated mice) | CE: cognitive enhancer (probability of activity signature) (compound-treated mice) | DP: anti-depressant (probability of activity signature) (compound-treated mice) | MS: mood stabilizer (probability of activity signature) (compound-treated mice) | PS: anti-psychotic (probability of activity signature) (compound-treated mice) | SD: sedative hypnotic (probability of activity signature) (compound-treated mice) | UN: uncharacterized CNS activity (probability of activity signature) (compound-treated mice) | further results
N[C@H]1COCc2ccc3ccccc3c21 (single isomer, unassigned) [Compound 118] | − | − | − | − |  |  |  |  |  |  |  |  |  |  |  |  |  | 
Cc1ccc2c(c1)[C@@H](N)COC2 [Compound 124] | − | − | − | − |  |  |  |  |  |  |  |  |  |  |  |  |  | 
Cc1ccc2c(c1)[C@H](N)[C@H](C)OC2 [Example 157] |  |  |  |  | + | + | − | + | + (LOQ ≤ + <5%) | ++ (5% ≤ ++ <25%) | ++ (5% ≤ ++ <25%) | ++ (5% ≤ ++ <25%) | ++ (5% ≤ ++ <25%) | ++ (5% ≤ ++ <25%) | +++ (25% ≤ +++ <50%) | + (LOQ ≤ + <5%) | ++++ (50% ≤ ++++) | Delta T ([…]T) (male Sprague-Dawley rats; 3 mg/kg PO): +; Potency: minimal effective dose (MED), binned (compound-treated mice; [4]): A (≤3 mpk)
N[C@H]1COCc2ccc(F)cc21 (single isomer, unassigned) [Compound 114] | − |  | − | − |  |  |  |  |  |  |  |  |  |  |  |  |  | Marbles Buried (Male C57Bl/6J mice [2]; 1 mg/kg (p.o.)): −
Cc1ccc2c(c1)[C@H](N)COC2 [Compound 123] | # | − | − | − |  |  |  |  |  |  |  |  |  |  |  |  |  | 
Cc1cccc2c1[C@@H](N)[C@@H](C)OC2 (single isomer, unassigned) [Example 170] |  |  |  |  | + | + | − | + | + (LOQ ≤ + <5%) | ++ (5% ≤ ++ <25%) | ++ (5% ≤ ++ <25%) | ++ (5% ≤ ++ <25%) | ++ (5% ≤ ++ <25%) | + (LOQ ≤ + <5%) | ++ (5% ≤ ++ <25%) | + (LOQ ≤ + <5%) | ++++ (50% ≤ ++++) | Potency: minimal effective dose (MED), binned (compound-treated mice; [4]): A (≤3 mpk)
C[C@@H]1OCc2ccccc2[C@H]1N (single isomer, unassigned) [Example 152] |  |  |  |  | + | + | − | + | + (LOQ ≤ + <5%) | ++ (5% ≤ ++ <25%) | +++ (25% ≤ +++ <50%) | ++ (5% ≤ ++ <25%) | ++ (5% ≤ ++ <25%) | + (LOQ ≤ + <5%) | ++ (5% ≤ ++ <25%) | + (LOQ ≤ + <5%) | +++ (25% ≤ +++ <50%) | Delta T ([…]T) (male Sprague-Dawley rats; 1 mg/kg PO): +; Delta T ([…]T) (male Sprague-Dawley rats; 3 mg/kg PO): +; Potency: minimal effective dose (MED) (compound-treated mice; [4]): A (≤3 mpk)
N[C@@H]1COCc2ccc3ccccc3c21 (single isomer, unassigned) [Compound 117] | − |  | − | − |  |  |  |  |  |  |  |  |  |  |  |  |  | Marbles Buried (Male C57Bl/6J mice [2]; 1 mg/kg (p.o.)): −
